Read-outs that look alike come from different tables or passages of the source. Blank lines part the entries; values can stand above or below the compound they belong to.
Columns and labels:
[1] = molecular target: T1, leukocyte-type 12-lipoxygenase (Mus musculus, UniProt P39654); design: method as in PMID 23579993; settings: cited from earlier work
T1 sequence (P39654 1-663): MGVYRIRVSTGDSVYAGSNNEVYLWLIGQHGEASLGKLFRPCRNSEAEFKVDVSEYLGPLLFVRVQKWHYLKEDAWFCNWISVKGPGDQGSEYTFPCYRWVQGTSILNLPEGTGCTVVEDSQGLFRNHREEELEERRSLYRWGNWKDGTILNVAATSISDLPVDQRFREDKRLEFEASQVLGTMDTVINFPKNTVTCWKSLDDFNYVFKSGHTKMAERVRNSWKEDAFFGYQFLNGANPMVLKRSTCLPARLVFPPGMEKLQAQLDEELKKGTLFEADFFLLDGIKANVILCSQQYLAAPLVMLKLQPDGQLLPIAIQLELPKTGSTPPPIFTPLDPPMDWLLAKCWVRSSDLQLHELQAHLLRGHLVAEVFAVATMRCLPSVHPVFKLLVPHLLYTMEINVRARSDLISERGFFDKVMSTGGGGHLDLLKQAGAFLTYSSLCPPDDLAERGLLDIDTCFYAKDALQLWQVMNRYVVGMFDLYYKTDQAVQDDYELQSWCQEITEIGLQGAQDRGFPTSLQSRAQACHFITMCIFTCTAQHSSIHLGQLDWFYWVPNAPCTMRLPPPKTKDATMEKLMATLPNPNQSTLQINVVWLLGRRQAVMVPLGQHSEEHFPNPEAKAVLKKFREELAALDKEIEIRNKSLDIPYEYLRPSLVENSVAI

[2] = molecular target: T1, leukocyte-type 12-lipoxygenase; test: leukocyte-type 12-lipoxygenase inhibition assay (arachidonic acid, HPLC quantification); assay type: biochemical; settings: 25 μM arachidonic acid, 30 °C, 5 min; for inhibitory effect on leukocyte-type 12-lipoxygenase activity (in words): various concentrations (Figure 5)
Procedure: Figure 3 Inhibition of the leukocyte-type 12-lipoxygenase activity by liguroside C (closed circles) and liguroside D (open circles). Leukocyte-type 12-lipoxygenase was incubated with 25 μM arachidonic acid at 30 °C for 5 min in the standard reaction mixture, in the presence of inhibitors at various concentrations and the products were quantified using a reverse-phase HPLC. Relative enzyme activities, as compared with the activity without inhibitors, are shown.
Figure 5 Inhibition of the leukocyte-type 12-lipoxygenase activity by liguroside A (closed circles), kudingoside B (grey circles), kudingoside A (open circles), and lipedoside B-III (open lozenges). Leukocyte-type 12-lipoxygenase was incubated with 25 μM arachidonic acid, at 30 °C, for 5 min, in the standard reaction mixture in the presence of inhibitors, at various concentrations, and the products were quantified using a reverse-phase HPLC. Relative enzyme activities, as compared with the activity without inhibitors, are shown.
The lipoxygenase and cyclooxygenase reactions were carried out, as described previously. Briefly, leukocyte-type 12-lipoxygenase or 15-lipoxygenase-1 was preincubated with inhibitors, in a volume of 0.2 mL in 100 mM Tris-HCl buffer, at pH 7.4, for 5 min at 30 °C, and was then incubated with 25 μM arachidonic acid for 5 min at 30 °C. Platelet-type 12-lipoxygenase reaction was carried out the as same as leukocyte-type 12-lipoxygenase reaction, except for incubation condition of 30 min at 37 °C. 5-Lipoxygenase was preincubated in 100 mM Tris-HCl buffer at pH 7.4, 2 mM CaCl2, and 2 mM ATP, with inhibitors, for 5 min on ice and then incubated with 25 μM arachidonic acid, for 5 min at 30 °C. To reduce the metabolites of each lipoxygenase isozyme, we added glutathione peroxidase (0.1 unit) and 5 mM glutathione to the mixture, followed by incubation for another 20 min. The enzyme reactions of cyclooxygenase-1 and cyclooxygenase-2 were carried out, as described previously. Briefly, cyclooxygenase-1 and cyclooxygenase-2 were preincubated with inhibitors in a volume of 0.2 mL in 100 mM Tris-HCl buffer at pH 7.4, 2 μM hematin, and 5 mM tryptophan, for 5 min at 24 °C, and then incubated with 25 μM […], for 5 min at 24 °C. After the reaction was quenched by an addition of 50 mM HCl, 0.5 nmol of 15-HEDE were added as an internal standard for enzyme reactions. The products extracted with ice-cold diethyl ether were analyzed by a reverse-phase HPLC, using a Waters Alliance system equipped with a COSMOSIL 5C18-MS-II column (5-μm particle, 250 × 4.6 mm i.d., Nacalai), with a solvent system of methanol-water-acetic acid (80:20:0.01, v/v), at a flow rate of 1 mL/min, as previously described. Absorption at 235 nm was continuously monitored, using a Waters 2489 UV/Visible detector (Waters, Milford, MA, USA). Protein concentration was determined using a bicinchoninic acid protein assay kit (Thermo Fisher Scientific, Waltham, MA, USA), with bovine serum albumin as a standard.

[3] = molecular target: T1, leukocyte-type 12-lipoxygenase; test: reversibility analysis of leukocyte-type 12-lipoxygenase inhibition (preincubation, 200-fold dilution); assay type: biochemical
Procedure: The preincubation mixture was 200-fold diluted 0, 5, 15, and 30 min, before starting the enzyme reaction under the standard condition for the lipoxygenase assay. […] On the other hands, tested ligurosides inhibited the leukocyte-type 12-lipoxygenase activity, even after 30 min, indicating an irreversible inhibition of the enzyme activity (Figure 4). Figure 4 Reversibility analysis of the leukocyte-type 12-lipoxygenase inhibition. The leukocyte-type 12-lipoxygenase was preincubated with 6 μM quercetin, liguroside A, liguroside C, and liguroside D, at 30 °C, for 5 min, and then the mixture was 200-fold diluted in the standard lipoxygenase reaction mixture. After 0, 5, 15, and 30 min, the mixtures were incubated with 25 μM arachidonic acid at 30 °C, for 5 min. […] The products extracted with ice-cold diethyl ether were analyzed by a reverse-phase HPLC, using a Waters Alliance system equipped with a COSMOSIL 5C18-MS-II column (5-μm particle, 250 × 4.6 mm i.d., Nacalai), with a solvent system of methanol-water-acetic acid (80:20:0.01, v/v), at a flow rate of 1 mL/min, as previously described. Absorption at 235 nm was continuously monitored, using a Waters 2489 UV/Visible detector (Waters, Milford, MA, USA). Protein concentration was determined using a bicinchoninic acid protein assay kit (Thermo Fisher Scientific, Waltham, MA, USA), with bovine serum albumin as a standard.

SMILES: O=C(O)C=Cc1ccc(O)cc1 [p-Coumaric acid, reference compound]
- inhibition of leukocyte-type 12-lipoxygenase activity (in words) [1]: no inhibition

- inhibitory effect on leukocyte-type 12-lipoxygenase activity (in words) [2]: did not inhibit
SMILES: CC(C)=CCC/C(C)=C/CO[C@@H]1O[C@H](CO)[C@@H](OC(=O)/C=C/c2ccc(O)cc2)[C@H](O[C@@H]2O[C@@H](C)[C@H](O)[C@@H](O)[C@H]2O)[C@H]1O [kudingoside A]

- inhibitory effect on leukocyte-type 12-lipoxygenase activity (in words) [2]: did not inhibit
SMILES: C=CC(C)(CCC=C(C)C)O[C@@H]1O[C@H](CO)[C@@H](OC(=O)/C=C/c2ccc(O)cc2)[C@H](O[C@@H]2O[C@@H](C)[C@H](O)[C@@H](O)[C@H]2O)[C@H]1O (stereo partly drawn) [lipedoside B-III]

- inhibitory effect on leukocyte-type 12-lipoxygenase activity (in words) [2]: lower inhibitory effect
SMILES: C/C(=C\CO[C@@H]1O[C@H](CO)[C@@H](OC(=O)/C=C/c2ccc(O)cc2)[C@H](O[C@@H]2O[C@@H](C)[C@H](O)[C@@H](O)[C@H]2O)[C@H]1O)C/C=C/C(C)(C)O [kudingoside B]

SMILES: O=c1c(O)c(-c2ccc(O)c(O)c2)oc2cc(O)cc(O)c12 [quercetin]
- inhibition of leukocyte-type 12-lipoxygenase activity at 6 μM (in words) ([3]; preincubated 5 min with 6 μM, no dilution): almost completely inhibited
- reversibility of leukocyte-type 12-lipoxygenase inhibition after dilution ([3]; preincubation 6 μM 5 min at 30 °C, 200-fold dilution, 0, 5, 15 and 30 min before reaction): quickly recovered

SMILES: C/C(=C\CO[C@@H]1O[C@H](CO)[C@@H](OC(=O)/C=C\c2ccc(O)cc2)[C@H](O[C@@H]2O[C@@H](C)[C@H](O)[C@@H](O)[C@H]2O)[C@H]1O)C/C=C/C(C)(C)OO [liguroside B]
- IC50 ([1]; previous report, read-out: IC50, inhibition of leukocyte-type 12-lipoxygenase activity): 700 nM

- IC50 [2]: 4200 nM
SMILES: C=C(C)C(CC/C(C)=C/CO[C@@H]1O[C@H](CO)[C@@H](OC(=O)/C=C/c2ccc(O)cc2)[C@H](O[C@@H]2O[C@@H](C)[C@H](O)[C@@H](O)[C@H]2O)[C@H]1O)OO (stereo partly drawn) [liguroside D]

- IC50 [2]: 2900 nM
SMILES: C=CC(C)(C/C=C/C(C)(C)OO)O[C@@H]1O[C@H](CO)[C@@H](OC(=O)/C=C/c2ccc(O)cc2)[C@H](O[C@@H]2O[C@@H](C)[C@H](O)[C@@H](O)[C@H]2O)[C@H]1O (stereo partly drawn) [liguroside C, (5E)-7-hydroperoxy-3,7-dimethyl-1,5-octadienyl-3-O-(α-L-rhamnopyranosyl)-(1′′→3′)-(4′′′-O-trans-p-coumaroyl)-β-D-glucopyranoside]
